The nature of series [1]: In vivo antitumor activity expressed as lethal dose with daily administration schedule against P388 murine leukemia cells. Type of series: ADME, organism-based. The conditions noted are these: mouse.
For series [2], the system named is L1210. Briefly: Cytotoxicity inhibition against cultured L1210 cells at 200 uM. The conditions noted are these: Mus musculus. Format: functional.
In series [3] the test system is L1210. The series can be described thus: Cytotoxicity inhibition against cultured L1210 cells at 400 uM. Format: functional. The conditions noted are these: Mus musculus.

The structures appear in SMILES notation.

Usually LD50 stands for the dose at which mortality reaches 50%. One may read the inhibition as the change of the read-out against control, counted positive when it falls.

In series [1], `CC(=O)OC[C@H]1O[C@@H](N2C(=O)C=CC2=O)[C@H](OC(C)=O)[C@@H]1OC(C)=O` registered an LD50 of 10 mg/kg.
On the same count and under the same terms, next, `O=C1C=CC(=O)N1C1O[C@H](CO)[C@@H](O)[C@H]1O` (stereo partly specified): 35 mg/kg; `O=C1C=C(Cl)C(=O)N1C1O[C@H](CO)[C@@H](O)[C@H]1O` (stereo partly specified): 18 mg/kg.
Compound `CC1=CC(=O)N(C2O[C@H](CO)[C@@H](O)[C@H]2O)C1=O` (stereo partly specified) displayed an LD50 in series [1] of 100 mg/kg. For the same compound, the inhibition at 200 µM in the series with L1210 [2] was found to be 95%. This compound also gave an inhibition at 400 µM in the series on L1210 [3] of 85%.

Values taken from ChEMBL document CHEMBL1121827, “Showdomycin analogues: synthesis and antitumor evaluation” (J Med Chem, 1981).
